The source of these data is ChEMBL document CHEMBL1124168 (J Med Chem, 1988).

The test system of assay [1] is Canis familiaris. In words: Antagonist activity was measured by maximum urine flow with a dose of 100 ug/kg peptide. Format: functional, Canis lupus familiaris.
Assay [2] deals with Canis familiaris. In words: Antagonist activity was measured by maximum urine osmolality with a dose of 100 ug/kg peptide after pretreatment with indomethacin in dog. Format: functional, Canis lupus familiaris.
For the next assay, the species on record is Sus scrofa. In words: (§1) In vitro antagonist activity was measured by inhibition of binding of [3H]LVP to renal medullary membrane preparation in pig. It is filed as functional. Conditions: Renal medulla.
The target in assay [3] is Vasopressin V2 receptor (Homo sapiens, UniProt P30518). In words: In vitro antagonist activity was measured by inhibition of vasopressin-stimulated adenylate cyclase in renal medullary preparation in human. Format: functional, tissue-based, Renal medulla.
Assay [4] deals with Rattus norvegicus. In words: […] antagonist activity was measured by dose required to lower urine osmolality to 300 mOsm/kg of H2O. Format: functional.
The subject of assay [5] is Canis familiaris. In words: Agonist activity was measured as maximum urine osmolality with a dose of 100 ug/kg peptide after pretreatment with indomethacin in dog.
Assay [6] concerns the target Vasopressin V2 receptor (Sus scrofa, UniProt P32307). The assay can be described thus: In vitro antagonist activity was measured by inhibition of vasopressin-stimulated adenylate cyclase in renal medullary preparation in pig. Format: functional, tissue-based, Renal medulla.
For assay [7], the system named is Rattus norvegicus. The assay can be described thus: […] antagonist activity is measured by dose required to lower urine osmolality to 300 mOsm/kg of H2O. It is filed as functional.
Another assay concerns the target Adenylate cyclase. In words: In vitro antagonist activity was measured by inhibition of vasopressin-stimulated adenylate cyclase in renal medullary preparation in human.
In assay [8] the target is Vasopressin V2 receptor (Sus scrofa) (UniProt P32307). The description is as §1. Format: tissue-based. Particulars: Renal medulla.
The test system of assay [9] is Canis familiaris. In words: Antagonist activity was measured by maximum urine osmolality with a dose of 100 ug/kg peptide after pretreatment with indomethacin ([…]) in dog. It is filed as functional, Canis lupus familiaris.

Vasopressin V2 receptor (Homo sapiens, UniProt P30518), sequence (P30518 whole entry): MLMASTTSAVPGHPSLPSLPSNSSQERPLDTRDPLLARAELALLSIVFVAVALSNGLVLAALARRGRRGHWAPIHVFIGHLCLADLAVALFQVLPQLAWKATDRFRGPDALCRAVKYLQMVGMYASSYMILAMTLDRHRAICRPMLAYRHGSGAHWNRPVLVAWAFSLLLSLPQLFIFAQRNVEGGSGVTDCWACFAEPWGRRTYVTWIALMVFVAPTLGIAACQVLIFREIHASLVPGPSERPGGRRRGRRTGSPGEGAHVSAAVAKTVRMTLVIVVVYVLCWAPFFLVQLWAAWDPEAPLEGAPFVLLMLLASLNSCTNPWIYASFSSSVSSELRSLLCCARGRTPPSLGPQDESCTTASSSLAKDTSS
Vasopressin V2 receptor (Sus scrofa, UniProt P32307), sequence (P32307 whole entry): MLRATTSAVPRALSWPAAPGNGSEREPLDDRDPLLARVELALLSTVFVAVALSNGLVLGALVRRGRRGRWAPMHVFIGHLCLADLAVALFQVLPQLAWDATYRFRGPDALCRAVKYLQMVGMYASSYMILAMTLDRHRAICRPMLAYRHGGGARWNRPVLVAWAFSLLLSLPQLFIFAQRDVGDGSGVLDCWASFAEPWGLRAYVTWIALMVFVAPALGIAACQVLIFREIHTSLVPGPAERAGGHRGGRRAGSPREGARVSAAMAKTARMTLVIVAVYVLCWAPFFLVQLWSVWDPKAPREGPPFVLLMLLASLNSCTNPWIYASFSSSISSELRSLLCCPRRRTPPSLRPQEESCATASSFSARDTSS
Vasopressin V2 receptor (Sus scrofa), sequence (P32307 whole entry): as above

`CCOc1ccc(C[C@H]2NC(=O)CC3(CCCCC3)CCCC(C(=O)N[C@@H](CCCN=C(N)N)C(=O)N[C@H](CCCN=C(N)N)C(N)=O)NC(=O)[C@H](CC(N)=O)NC(=O)[C@H](C(C)C)NC(=O)[C@H](Cc3ccccc3)NC2=O)cc1` (some centres not stated) displayed a Volume in the assay with Canis familiaris [1] of 4.6 mL/min. In the assay on Canis familiaris [2], the U osm is on record as 56 mOsmol kg-1. Besides, in the assay filed under Sus scrofa, the Kb (in general, the affinity of an antagonist, worked out from how it opposes an agonist) is 5.1 nM. For the same compound, on Vasopressin V2 receptor [3], affinity was put at a Ki of 3.9 nM. In addition, the ED300 in the assay with Rattus norvegicus [4] was 9 µg/kg.
Turning to `CCOc1ccc(C[C@H]2NC(=O)CC3(CCCCC3)CCC[C@@H](C(=O)N3CCC[C@H]3C(=O)N[C@@H](CCCN=C(N)N)C(N)=O)NC(=O)[C@H](CC(N)=O)NC(=O)[C@H](C(C)C)NC(=O)[C@H](Cc3ccccc3)NC2=O)cc1` [listing 1 of 2 here], the U osm in the assay on Canis familiaris [5] amounted to 319 mOsmol kg-1. Also, the Volume in the assay with Canis familiaris [1] was determined as 0.69 mL/min. The ED300 in the assay on Rattus norvegicus [4] was found to be 12.2 µg/kg.
As to `CCOc1ccc(C[C@H]2NC(=O)CC3(CCCCC3)CCC[C@@H](C(=O)N3CCC[C@H]3C(=O)N[C@@H](CCCN=C(N)N)C(N)=O)NC(=O)[C@H](CC(N)=O)NC(=O)[C@H](C(C)C)NC(=O)[C@H](Cc3ccccc3)NC2=O)cc1` [listing 2 of 2 here], the Ki (commonly a dissociation constant, usually derived from enzyme kinetics or from competition with a known ligand) was found to be 2.7 nM at Vasopressin V2 receptor [3] and 3.5 nM on Vasopressin V2 receptor [6].
In the assay filed under Sus scrofa, `CCOc1ccc(C[C@H]2NC(=O)CC3(CCCCC3)SSCC(C(=O)N3CCC[C@@H]3C(=O)N[C@@H](CCCN=C(N)N)C(N)=O)NC(=O)[C@H](CC(N)=O)NC(=O)[C@H](C(C)C)NC(=O)[C@H](Cc3ccccc3)NC2=O)cc1` (some centres not stated) displayed a Kb of 11.8 nM.
In turn, `CCOc1ccc(C[C@H]2NC(=O)CC3(CCCCC3)SSCC(C(=O)N[C@@H](CCCN=C(N)N)C(=O)N[C@H](CCCN=C(N)N)C(N)=O)NC(=O)[C@H](CC(N)=O)NC(=O)[C@H](C(C)C)NC(=O)[C@H](Cc3ccccc3)NC2=O)cc1` (some centres not stated) returned a Volume with Canis familiaris [1] of 0.76 mL/min. Also, in the assay with Canis familiaris [2], the U osm is 429 mOsmol kg-1. This compound gave a Kb in the assay filed under Sus scrofa of 5.4 nM. Further, the Ki at Vasopressin V2 receptor [3] worked out at 2.4 nM; on Vasopressin V2 receptor [6], 1.6 nM. In addition, the ED300 with Rattus norvegicus [4] was found to be 13.5 µg/kg.
For `CCOc1ccc(C[C@H]2NC(=O)CC3(CCCCC3)SSC[C@@H](C(=O)N3CCC[C@H]3C(=O)N[C@@H](CCCN=C(N)N)C(N)=O)NC(=O)[C@H](CC(N)=O)NC(=O)[C@H](C(C)C)NC(=O)[C@H](Cc3ccccc3)NC2=O)cc1`, in the assay with Canis familiaris [1], the Volume worked out at 0.07 mL/min. For the same compound, the U osm in the assay with Canis familiaris [2] was determined as 1302 mOsmol kg-1. The compound also came in with an ED300 in the assay on Rattus norvegicus [4] of 8.4 µg/kg.
In turn, `CCOc1ccc(C[C@H]2NC(=O)CC3(CCCCC3)SSCC(C(=O)N[C@@H](CCCN=C(N)N)C(N)=O)NC(=O)[C@H](CC(N)=O)NC(=O)[C@H](C(C)C)NC(=O)[C@H](Cc3ccccc3)NC2=O)cc1` (some centres not stated) gave an ED300 with Rattus norvegicus [7] of 58 µg/kg. The compound further gave a Kb in the assay filed under Sus scrofa of 10.2 nM. Moreover, the Ki at Vasopressin V2 receptor [3] was found to be 1.5 nM; at Vasopressin V2 receptor [6] it was 2.9 nM.
The compound `CCOc1ccc(C[C@H]2NC(=O)CC3(CCCCC3)CCCC(C(=O)N3CCC[C@@H]3C(=O)N[C@@H](CCCN=C(N)N)C(N)=O)NC(=O)[C@H](CC(N)=O)NC(=O)[C@H](C(C)C)NC(=O)[C@H](Cc3ccccc3)NC2=O)cc1` (some centres not stated) registered a Kb in the assay listed under Sus scrofa of 7.1 nM.
Regarding `CCOc1ccc(C[C@H]2NC(=O)CC3(CCCCC3)CCCC(C(=O)N[C@@H](CCCN=C(N)N)C(N)=O)NC(=O)[C@H](CC(N)=O)NC(=O)[C@H](C(C)C)NC(=O)[C@H](Cc3ccccc3)NC2=O)cc1` (some centres not stated), in the assay with Rattus norvegicus [7], the ED300 came out at 28 µg/kg. Further, at Adenylate cyclase, the Ki amounted to 4.4 nM. This compound also came in with an antagonist equilibrium constant (Kb) in [8] of 14 nM.
Turning to `N=C(N)NCCC[C@H](NC(=O)[C@@H]1CCCN1C(=O)[C@@H]1CSSC[C@H](N)C(=O)N[C@@H](Cc2ccc(O)cc2)C(=O)N[C@@H](Cc2ccccc2)C(=O)N[C@@H](CCC(N)=O)C(=O)N[C@@H](CC(N)=O)C(=O)N1)C(=O)NCC(N)=O` [VASOPRESSIN], the Volume in the assay on Canis familiaris [1] stood at 1.4 mL/min. Further, in the assay on Canis familiaris [9], the U osm is listed as 939 mOsmol kg-1.
`COc1ccc2c(c1)c(CC(=O)O)c(C)n2C(=O)c1ccc(Cl)cc1` [INDOMETHACIN] returned a Volume in the assay on Canis familiaris [1] of 2.8 mL/min. For the same compound, the U osm with Canis familiaris [2] was 92 mOsmol kg-1.
